Data taken from the supplement of paper PMC10307832.

Assays:
Test in all cases: relative viability (nuclei count vs DMSO), 5 days (fraction); higher = more cells survive
[1] = compound: C1CSC2=C(C(=O)N1)SC3=C2C=C(C=C3)O [kb NB 142-70] + CS(=O)(=O)N1CCN(Cc2cc3nc(-c4cccc5[nH]ncc45)nc(N4CCOCC4)c3s2)CC1 [Pictilisib] (partner 1 µM)
Procedure, shortened: (§1)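 Relative viability equals treated-well nuclei counts divided by vehicle-well nuclei counts. Counts came from 4× images of lung cancer cell lines grown in 1536-well plates for 5 days after pin-tool dosing on the day after seeding. Dosing used one drug alone or a fixed anchor-drug dose plus five library-drug doses (not always all listed) in √10 steps, and values are medians of duplicate plates.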

[2] = compound: C1CSC2=C(C(=O)N1)SC3=C2C=C(C=C3)O [kb NB 142-70] + O=C(CCCCCCC(=O)Nc1ccccc1)NO [Vorinostat] (partner 1 µM)
Procedure, shortened: as §1

[3] = compound: NCC(=O)Nc1ccc(-n2nc(C(F)(F)F)cc2-c2ccc3c(ccc4ccccc43)c2)cc1 + CC(=O)Nc1cccc(-n2c(=O)n(C3CC3)c(=O)c3c(Nc4ccc(I)cc4F)n(C)c(=O)c(C)c32)c1 [Trametinib] (partner 0.02 µM)
Procedure, shortened: as §1

[4] = compound: NCC(=O)Nc1ccc(-n2nc(C(F)(F)F)cc2-c2ccc3c(ccc4ccccc43)c2)cc1 + NC(=O)Nc1cc(-c2cccc(F)c2)sc1C(=O)N[C@H]1CCCNC1 [AZD7762] (partner 0.2 µM)
Procedure, shortened: as §1

| Cell Line | relative viability ([1]; first compound 0.1 µM) | relative viability ([1]; first compound 1 µM) | relative viability ([1]; first compound 3.162 µM) | relative viability ([2]; first compound 0.1 µM) | relative viability ([2]; first compound 1 µM) | relative viability ([2]; first compound 3.162 µM) | relative viability ([3]; first compound 0.02 µM) | relative viability ([3]; first compound 0.06325 µM) | relative viability ([3]; first compound 0.2 µM) | relative viability ([3]; first compound 0.6325 µM) | relative viability ([3]; first compound 2 µM) | relative viability ([4]; first compound 0.02 µM) | relative viability ([4]; first compound 0.06325 µM) | relative viability ([4]; first compound 0.2 µM) | relative viability ([4]; first compound 0.6325 µM) | relative viability ([4]; first compound 2 µM) |
| --- | --- | --- | --- | --- | --- | --- | --- | --- | --- | --- | --- | --- | --- | --- | --- | --- |
| NCI-H661 | 0.496 | 0.343 | 0.351 | 0.761 | 0.755 | 0.767 | 0.547 | 0.559 | 0.56 | 0.644 | 0.588 |  |  |  |  |  |
| NCI-H1299 | 0.802 | 0.889 | 0.32 |  |  |  |  |  |  |  |  |  |  |  |  |  |
| NCI-H1563 | 0.654 | 0.674 | 0.634 |  |  |  |  |  |  |  |  |  |  |  |  |  |
| NCI-H1648 |  |  |  | 0.356 | 0.345 | 0.423 | 0.414 | 0.533 | 0.573 | 0.563 | 0.506 | 0.893 | 0.598 | 0.74 | 0.663 | 0.588 |
| NCI-H1650 | 0.577 | 0.539 | 0.613 | 0.656 | 0.569 | 0.425 | 0.403 | 0.54 | 0.648 | 0.769 | 0.642 |  |  |  |  |  |
| NCI-H1703 | 0.249 | 0.286 | 0.255 |  |  |  |  |  |  |  |  | 0.127 |  | 0.122 | 0.124 | 0.142 |
| NCI-H1792 | 0.323 | 0.269 | 0.396 |  |  |  | 0.486 | 0.425 | 0.471 | 0.406 | 0.436 | 0.725 | 0.772 | 0.759 | 0.822 | 0.682 |
| NCI-H2009 | 0.857 | 0.814 | 0.564 | 0.724 | 0.95 | 0.688 | 0.265 | 0.35 | 0.316 | 0.275 | 0.301 |  |  |  |  |  |
| NCI-H2023 | 0.258 | 0.207 | 0.227 | 0.613 | 0.667 | 0.343 | 0.552 | 0.709 | 0.702 | 0.513 | 0.358 |  |  |  |  |  |
| NCI-H2228 | 0.494 | 0.225 | 0.183 | 0.988 | 0.557 | 0.512 | 0.559 | 0.593 | 0.548 | 0.572 | 0.553 |  |  |  |  |  |
| NCI-H2342 |  |  |  | 0.858 | 0.782 | 0.649 | 0.887 | 0.877 | 0.965 | 0.833 | 0.776 | 0.666 | 0.633 | 0.502 | 0.449 | 0.558 |
| SK-LU-1 | 0.608 | 0.484 | 0.324 | 0.831 | 0.642 | 0.371 | 0.43 | 0.519 | 0.537 | 0.521 | 0.576 |  |  |  |  |  |
| SK-MES-1 | 0.333 | 0.325 | 0.235 | 1.09 | 1.21 | 0.567 | 0.56 | 0.555 | 0.612 | 0.511 | 0.593 |  |  |  |  |  |
| SW 900 |  |  |  | 0.597 | 0.593 | 0.388 | 0.889 | 1.04 | 1 | 0.736 | 0.78 | 0.635 | 0.558 | 0.701 | 0.659 | 0.655 |
| SW 1573 | 0.49 | 0.337 | 0.26 | 0.655 | 0.426 | 0.327 | 0.551 | 0.436 | 0.637 | 0.565 | 0.476 |  |  |  |  |  |
